Results published in patent US11725096B2, “Zinc oxide complexes” (MARY KAY INC., priority 2010, dated 2023).

Tests used:
[1] = cited from earlier work
[2] = Solubility / dissociation of the complexes in water; settings: approximately 0.1 g in 10 Ml deionized water, after standing overnight
Experimental: Zinc oxide and lactic acid were mixed in an ethanol solution (reagent grade ethyl alcohol denatured with methanol and isopropyl alcohol) containing approximately 10% water at room temperature with continuous stirring using a magnetic stirrer. […] The crystals were isolated by filtering.
(§1) Specifically, approximately 0.1 g zinc oxide/lactic acid was dissolved in 10 Ml of deionized water via vortexing. […] Specifically, approximately 0.1 g zinc oxide was mixed in 10 Ml sodium lactate solution (containing approximately 0.88 g sodium lactate in 10 Ml deionized water). The mixture was vortexed to dissolve the particles such that no large visible particles remained.

[3] = assay type: physicochemical
Experimental: as §1

[4] = Experimental: To further test solubility of the zinc oxide/lactic acid complexes in a solution comprising lactic acid and water, increasing amounts of lactic acid were added to 0.725 g zinc oxide/lactic acid complexes. Specifically, the following amounts of 88% lactic acid were added to the zinc oxide/lactic acid complexes in 10 Ml deionized water: 0.0273 g, 0.0262 g, 0.0345 g, 0.0575 g, 0.0757 g, 0.1166 g, 0.1562 g, 0.1389 g, 0.1486 g, and 0.2810 g. Approximately 0.3 g zinc oxide/lactic acid complexes were also mixed with 0.0670 g or 0.2517 g 88% lactic acid.

Compound | solubility in neutral aqueous solutions [1] | Ph of the mixture in water [2] | solubility in sodium lactate [3] | Ph of the mixture in sodium lactate solution ([3]; approximately 0.1 g in 10 Ml sodium lactate solution, overnight) | solubility in lactic acid and water (appearance of the mixture) [4]
[O]=[Zn] [Zinc oxide, zinc oxide] | nearly insoluble | – | – | – | –
CC1[O][Zn]2([OH])([O]C1=O)[O]C(=O)C(C)[O]2 (centres unmarked) [zinc oxide/lactic acid complexes] | – | approximately 6 | soluble in sodium lactate | approximately 6 | milky mixture that settles upon standing
